The results in this text go back to patent US9603872B2, “Methods and compositions for mitochondrial replacement therapy” (The McLeon Hospital Corporation, priority 2007, dated 2017).

Structures are written as SMILES. Values joined by “and” are separate entries in the source; they are usually repeats but may differ in a detail not shown here. Equal entries are not always repeated. “Also recorded” adds a separate entry of the source. Where two headings read alike, the source gives them in different places.

The subject of experiment [1] is Control fibroblasts and lymphocytes. The following applies: 2 mM, 3 and 5 days, light microscopy. As to the method: Mood stabilizing drugs like lithium are commonly used as treatment for BD (Friedman et al., Biol. Psychiatr. 56:340-348 (2004) and Goodwin et al., JAMA 290:1467-1473 (2003)), and all but one of our subjects with BD was receiving lithium. […] Control fibroblasts and lymphocytes were treated with 2 mM lithium carbonate (LiCO3; approximately twice the average serum level of lithium in patients) for 3 and 5 days. Cells treated with a water vehicle only served as controls.
The fluorescent marker, MitoTracker-M7510 (Invitrogen, Carlsbad Calif.), was used to visualize mitochondria according to manufacturers instructions. Briefly, fibroblasts were plated at 2.5×10^4 and grown on coverslips, subsequently washed one time with pre-warmed growth media and incubated with M7510 at a final concentration of 250 nM in culture media at 37° C., 5% CO2 for 30 min. Cells were then washed once with culture media and fixed in 4% paraformaldehyde in 100 mM phosphate buffer pH 7.4 for 15 min. Following fixation, coverslips were rinsed two times in PBS and mounted in Gel Mount (Biomedia).

For experiment [2], the system named is fibroblasts from BD subjects. The experiment can be described thus: ATP levels by bioluminescence (luciferase) assay after metabolic stress. The experiment is classed as cell-based, human. On the procedure: (§1) Loss of red JC1 signal relative to monomeric green JC1 indicates collapse of mitochondrial membrane […] (Smiley et al., Proc. Natl. Acad. Sci. 88:3671-3675 (1991) and Cossarizza et al., Biochem. Biophys. Res. Comm. 197:40-45 (1993)).
(§2) ATP production was measured in cultured fibroblast lines using the Roche ATP Bioluminescence assay kit CLSII following the manufacturer's protocol (Roche Diagnostics, Mannheim, Germany). Briefly, cells were plated at a concentration of 2.5×10^5 cellsper 60 mm dish were used for each experiment and experiments were conducted two days later. Cell lysis was achieved by boiling in lysis solution ([…], 4 mM EDTA, pH=7.75) followed by incubation for 2 min at 100° C. The cells then were centrifuges spun at 1000×g for 1 min. The supernatants were used for total cell ATP determination. Samples were run in triplicate on a 96-well plate MLX luminometer (Dynex Technologies, Chantilly, Va., USA). Integration was delayed for 1 sec after the addition of luciferase and luminescence was measured for 10 seconds at an emission maximum of […]. Following ATP luminescence measurements, data was normalized to protein concentration as determined by the method of Bradford (Bradford DC assay, BioRad, Temecula, Calif., USA) to yield nanograms of ATP per mg of protein. Assays were performed in triplicate.
(§3) Fibroblasts (n=6) and lymphocytes (n=6) from patients with BD and age-matched controls (Fibroblasts, n=6; lymphocytes, n=6)) were exposed to hydrocortisone to induce mitochondrial stress (REFS). Hydrocortisone (Sigma H0888, St. Louis, Mo., USA) was dissolved in 50% ethanol/50% culture medium to yield a 40 mM stock solution. Hydrocortisone was then diluted to appropriate experimental concentrations (10 nM, 1 uM, 100 uM) with above described growth media. Confluent (85-95%) fibroblasts and lymphocytes (1×10^5 ? 1×10^6) were treated for 24 hr with hydrocortisone (sub-acute stress). Cells treated with vehicle (25% ethanol) alone served as controls. Following hydrocortisone treatment, fibroblasts were examined for alterations in mitochondrial morphology, membrane potential, and ATP levels, as described above. All experiments were performed in triplicate.
(§4) We also studied an equal number of fibroblast lines from BD and age-matched controls which were exposed to 100 μM hydrogen peroxide for 24 hrs (REFS). ATP levels were assayed as described above. Light microscopic analysis of JC1 to determine changes in mitochondrial membrane potential also were performed as previously described.

The subject of experiment [3] is fibroblasts from healthy individuals. The experiment can be described thus: Mitochondrial membrane potential by JC-1 staining after metabolic stress. The experiment is classed as cell-based, human. The following applies: 100 μM HC, 24 hr.
Text: as §1
(§5) The cationic fluorescent dye, JC-1 (5,5′,6,6′-tetrachloro-1,1′,3,3′-tetraethylbenzimidazolylcarbocyanine iodide) (Strategene, La Jolla, Calif. USA), was used to detect changes in mitochondrial membrane potential according to manufacturer's protocol. JC-1 reagent produces a red fluorescence (absorption/emission maxima=585/590 nm) after accumulation and aggregation in healthy, non-apoptotic cells with intact mitochondrial membrane potential and localizes to the cytoplasm as green with JC-1 monomers fluorescence (absorption/emission maxima=510/527 nm) in cells with compromised membrane potential. Briefly, cell lines were plated at a concentration of 2.5×10^4 on coverslips and were incubated with a 1:100 dilution of pre-warmed JC1 in growth media for 15 to 20 min at 37° C., 5% CO2. Cells were then rinsed once with assay buffer and mounted in PBS and analyzed immediately on a fluorescence microscopy. The coverslips were placed on standard microscopy slides and viewed immediately using a Zeiss Axiskop 2 epifluorescence microscope.
as §3, §4

In the next experiment the test system is BD fibroblasts. The experiment is described as above. The experiment is classed as cell-based, human.
Text: as §1, §5, §3, §4

Experiment [4] has as its system control fibroblasts. The experiment can be described thus: Mitochondrial morphology by MitoTracker 7510 after metabolic stress. The experiment is classed as cell-based, human. As to the method: as §3, with “The fluorescent marker, MitoTracker-[…] Fibroblasts (n=6)” for “Fibroblasts (n=6)”, “in triplicate. […] ATP levels were assayed as described above.” for “in triplicate.”

Experiment [5] deals with fibroblasts from BD patients. The experiment is described as above. The experiment is classed as cell-based, human. As to the method: as §3, with “The fluorescent marker, MitoTracker-[…] Fibroblasts (n=6)” for “Fibroblasts (n=6)”, “in triplicate. […] ATP levels were assayed as described above.” for “in triplicate.”
In experiment [6] the test system is control fibroblasts. The following applies: H2O2 treated. As to the method:
as §1
as §2, with “triplicate. […]” for “triplicate.”

Setting [7] is: HC treatment, BD and control fibroblasts, data not shown.

Take `O=C([O-])[O-].[Li+].[Li+]` [LiCO3, lithium carbonate]: the “mitochondrial shape and distribution vs vehicle treated cells” value was “no significant differences in mitochondrial shape and distribution” in experiment [1]; “could not be replicated” in experiment [1] (listed as lithium).

`C[C@]12CCC(=O)C=C1CC[C@@H]1[C@@H]2[C@@H](O)C[C@@]2(C)[C@H]1CC[C@]2(O)C(=O)CO` [hydrocortisone]: the “differences in ATP levels after treatment” value in experiment [2] (setting [7]) was “did not reach statistical significance”. In addition, the “JC-1 staining (red aggregates vs green monomer) vs untreated cells” value in experiment [3] was “loss of red mitochondrial aggregates in most cells; also recorded: loss of red mitochondrial aggregates”. In the experiment with BD fibroblasts (100 μM HC, 24 hr), the “JC1 staining (red aggregates vs green monomer)” value is “an even greater loss of red JC1 mitochondrial aggregates; also recorded: a loss of red JC1 mitochondrial aggregates in the majority of cells”. Besides, the “ratiometric changes in JC1 after treatment” value in the experiment with BD fibroblasts (setting [7]) is “did not reach statistical significance”. The “mitochondrial morphology (MitoTracker 7510) vs untreated cells” value in the experiment on control fibroblasts [4] (100 μM HC, 24 hr) was “some loss in the reticular pattern of mitochondria; also recorded: a slight loss in the reticular pattern of the mitochondrial network and greater frequency of perinuclear clustering”. The “mitochondrial morphology (MitoTracker 7510)” value in experiment [5] (100 μM HC, 24 hr) was “perinuclear clustering like that seen in untreated cells but a greater degree of mitochondrial fragmentation”.

For `OO` [H2O2, hydrogen peroxide], the “decrease in ATP levels compared to untreated BD fibroblasts” value in experiment [2] (H2O2 treated, p<0.001) stood at 83%. Besides, the “decrease in ATP levels compared to control cells exposed to H2O2” value in experiment [2] (H2O2 treated, p<0.05) is reported as 93%. The “ATP levels, mean” value in experiment [2] (H2O2 treated, method b169: normalized to nanograms of ATP per mg of protein) was 6.2×10^−5 and 6.2×10^−4; in the experiment with control fibroblasts [6] (method b169: normalized to nanograms of ATP per mg of protein) it was 9.9×10^−4. For the same compound, in the experiment on BD fibroblasts (100 μM H2O2, 24 hrs), the “JC1 staining (mitochondrial membrane integrity)” value is “severe loss of mitochondrial membrane integrity”. The “ATP compared to untreated control cells” value in the experiment with control fibroblasts [6] was “no significant difference”. The “mitochondrial morphology (MitoTracker 7510) vs untreated cells” value in the experiment with control fibroblasts [4] (100 μM H2O2, 24 hrs) is “a dispersed mitochondrial network with loss of elongated mitochondrial profiles, increased perinuclear clustering, and increased mitochondrial fragmentation; also recorded: dispersion of the mitochondrial network with loss of elongated mitochondrial profiles”; in experiment [5] (100 μM H2O2, 24 hrs), “almost complete loss of the mitochondrial network, mitochondrial clustering and dramatic mitochondrial fragmentation”.
